In patent US20230203059A1, “MACROCYCLIC JAK INHIBITOR AND USES THEREOF” (Biopolar Hongye (Guangdong) Pharmaceutical Co. Ltd., priority 2020, published 2023):

Assays:
Type in all cases: biochemical
[1] = target: TYK2 (Homo sapiens, UniProt P29597); assay: JAK kinase activity, homogeneous time-resolved fluorescence (TYK2 reaction system); details: ATP 2 μM, TYK2 protein 0.2 ng/μL; read-out: TYK 2 activity
Procedure, shortened: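 Activity read as the 665 nm/615 nm ratio after adding EDTA-containing detection mix with anti-phospho-substrate antibody and XL-615. Beforehand, 0.2 ng/μL TYK2, 2 μM ATP, substrate and compound reacted 1 h in pH 7.0 Hepes buffer with MgCl2 and DTT. IC50 fitted with Hill-slope equation.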

[2] = target: JAK2 (Homo sapiens, UniProt O60674); assay: JAK kinase activity, homogeneous time-resolved fluorescence (JAK2 reaction system); details: ATP 2 μM, JAK2 protein 0.01 ng/μL
Chain of JAK2 (O60674 whole entry): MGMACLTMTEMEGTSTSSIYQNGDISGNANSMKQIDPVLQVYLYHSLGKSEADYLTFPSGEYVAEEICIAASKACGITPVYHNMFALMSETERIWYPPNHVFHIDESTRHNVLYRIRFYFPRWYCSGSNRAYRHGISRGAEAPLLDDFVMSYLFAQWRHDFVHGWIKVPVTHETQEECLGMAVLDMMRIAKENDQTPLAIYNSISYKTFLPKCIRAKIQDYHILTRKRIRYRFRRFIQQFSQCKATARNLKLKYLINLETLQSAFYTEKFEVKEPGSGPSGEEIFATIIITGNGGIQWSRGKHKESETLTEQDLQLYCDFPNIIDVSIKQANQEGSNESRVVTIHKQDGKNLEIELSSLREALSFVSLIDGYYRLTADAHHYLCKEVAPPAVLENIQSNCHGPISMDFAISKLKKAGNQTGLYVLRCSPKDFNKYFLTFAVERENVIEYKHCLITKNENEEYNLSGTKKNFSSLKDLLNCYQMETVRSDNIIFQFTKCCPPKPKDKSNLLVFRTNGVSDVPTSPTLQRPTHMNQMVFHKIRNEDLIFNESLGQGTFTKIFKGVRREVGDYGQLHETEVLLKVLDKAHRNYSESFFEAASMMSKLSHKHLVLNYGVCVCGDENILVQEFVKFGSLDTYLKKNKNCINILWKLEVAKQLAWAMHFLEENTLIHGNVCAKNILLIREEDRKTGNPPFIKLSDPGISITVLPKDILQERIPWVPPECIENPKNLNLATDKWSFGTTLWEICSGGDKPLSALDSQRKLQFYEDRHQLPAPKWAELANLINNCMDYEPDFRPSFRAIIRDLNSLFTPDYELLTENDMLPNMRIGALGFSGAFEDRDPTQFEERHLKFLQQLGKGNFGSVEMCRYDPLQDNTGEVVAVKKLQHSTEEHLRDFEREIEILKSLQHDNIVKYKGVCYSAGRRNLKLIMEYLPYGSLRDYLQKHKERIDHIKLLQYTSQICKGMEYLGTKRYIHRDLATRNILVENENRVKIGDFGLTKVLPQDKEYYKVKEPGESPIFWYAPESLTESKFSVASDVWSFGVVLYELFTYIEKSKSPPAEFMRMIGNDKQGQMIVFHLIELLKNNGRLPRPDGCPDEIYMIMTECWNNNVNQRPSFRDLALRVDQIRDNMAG
Procedure, shortened: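 IC50 derived by Hill-equation fit of the 665/615 nm time-resolved fluorescence ratio after EDTA-containing detection mix with anti-phosphosubstrate antibody. Preceding 1 h reaction contained 2 μM ATP, 0.01 ng/μL JAK2, substrate, 50 mM Hepes pH 7.0, 5 mM MgCl2, 1 mM DTT.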

[3] = target: JAK1 (Homo sapiens, UniProt P23458); assay: JAK kinase activity, homogeneous time-resolved fluorescence (JAK1 reaction system); details: ATP 2 μM, JAK1 protein 0.2 ng/μL; read-out: JAK 1 activity
Chain of JAK1 (P23458 whole entry): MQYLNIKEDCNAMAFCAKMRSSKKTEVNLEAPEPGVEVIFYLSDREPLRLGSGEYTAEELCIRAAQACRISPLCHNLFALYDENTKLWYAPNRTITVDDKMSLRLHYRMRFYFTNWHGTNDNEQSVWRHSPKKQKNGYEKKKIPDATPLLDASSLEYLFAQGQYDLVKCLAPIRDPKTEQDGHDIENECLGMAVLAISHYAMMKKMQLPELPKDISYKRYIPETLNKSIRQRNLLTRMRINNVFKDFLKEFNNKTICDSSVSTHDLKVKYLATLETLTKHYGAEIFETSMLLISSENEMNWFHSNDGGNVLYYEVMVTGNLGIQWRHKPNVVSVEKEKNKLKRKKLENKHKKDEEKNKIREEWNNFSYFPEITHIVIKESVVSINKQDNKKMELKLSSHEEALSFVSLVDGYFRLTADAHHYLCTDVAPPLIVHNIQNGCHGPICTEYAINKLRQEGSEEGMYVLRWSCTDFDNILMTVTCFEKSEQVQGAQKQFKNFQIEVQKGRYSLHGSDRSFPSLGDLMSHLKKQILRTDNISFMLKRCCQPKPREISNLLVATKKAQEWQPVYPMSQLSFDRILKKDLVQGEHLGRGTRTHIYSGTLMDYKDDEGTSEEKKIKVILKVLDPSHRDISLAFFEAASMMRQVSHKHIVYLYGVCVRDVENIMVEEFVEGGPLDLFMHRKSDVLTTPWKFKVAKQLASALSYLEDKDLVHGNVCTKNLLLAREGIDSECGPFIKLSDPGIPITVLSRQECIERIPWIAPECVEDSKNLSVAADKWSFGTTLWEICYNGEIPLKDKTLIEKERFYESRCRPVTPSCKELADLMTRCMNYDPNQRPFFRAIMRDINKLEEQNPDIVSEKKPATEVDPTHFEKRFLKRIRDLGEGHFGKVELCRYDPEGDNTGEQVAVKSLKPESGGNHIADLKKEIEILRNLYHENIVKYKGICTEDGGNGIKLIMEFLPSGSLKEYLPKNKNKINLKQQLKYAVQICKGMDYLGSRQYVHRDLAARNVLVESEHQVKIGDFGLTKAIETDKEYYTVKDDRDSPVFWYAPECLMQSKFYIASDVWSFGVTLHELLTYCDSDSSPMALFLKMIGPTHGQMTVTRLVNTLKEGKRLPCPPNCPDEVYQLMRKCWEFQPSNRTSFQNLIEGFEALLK
Procedure, shortened: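 Kinase activity read as the 665 nm/615 nm time-resolved fluorescence ratio (320 nm excitation) after EDTA-containing antibody and XL-615 addition. Reaction ran 1 h at pH 7.0 (Hepes, MgCl2, DTT) with 0.2 ng/μL JAK1 and ATP at 2 μM. IC50 derived by Hill-slope fit.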

[4] = target: T1, JAK3 (Homo sapiens, UniProt P52333); assay: JAK kinase activity, homogeneous time-resolved fluorescence (JAK3 reaction system); details: ATP 2 μM, JAK3 protein 0.04 ng/μL; read-out: JAK 3 activity
T1 sequence (P52333 1-1124): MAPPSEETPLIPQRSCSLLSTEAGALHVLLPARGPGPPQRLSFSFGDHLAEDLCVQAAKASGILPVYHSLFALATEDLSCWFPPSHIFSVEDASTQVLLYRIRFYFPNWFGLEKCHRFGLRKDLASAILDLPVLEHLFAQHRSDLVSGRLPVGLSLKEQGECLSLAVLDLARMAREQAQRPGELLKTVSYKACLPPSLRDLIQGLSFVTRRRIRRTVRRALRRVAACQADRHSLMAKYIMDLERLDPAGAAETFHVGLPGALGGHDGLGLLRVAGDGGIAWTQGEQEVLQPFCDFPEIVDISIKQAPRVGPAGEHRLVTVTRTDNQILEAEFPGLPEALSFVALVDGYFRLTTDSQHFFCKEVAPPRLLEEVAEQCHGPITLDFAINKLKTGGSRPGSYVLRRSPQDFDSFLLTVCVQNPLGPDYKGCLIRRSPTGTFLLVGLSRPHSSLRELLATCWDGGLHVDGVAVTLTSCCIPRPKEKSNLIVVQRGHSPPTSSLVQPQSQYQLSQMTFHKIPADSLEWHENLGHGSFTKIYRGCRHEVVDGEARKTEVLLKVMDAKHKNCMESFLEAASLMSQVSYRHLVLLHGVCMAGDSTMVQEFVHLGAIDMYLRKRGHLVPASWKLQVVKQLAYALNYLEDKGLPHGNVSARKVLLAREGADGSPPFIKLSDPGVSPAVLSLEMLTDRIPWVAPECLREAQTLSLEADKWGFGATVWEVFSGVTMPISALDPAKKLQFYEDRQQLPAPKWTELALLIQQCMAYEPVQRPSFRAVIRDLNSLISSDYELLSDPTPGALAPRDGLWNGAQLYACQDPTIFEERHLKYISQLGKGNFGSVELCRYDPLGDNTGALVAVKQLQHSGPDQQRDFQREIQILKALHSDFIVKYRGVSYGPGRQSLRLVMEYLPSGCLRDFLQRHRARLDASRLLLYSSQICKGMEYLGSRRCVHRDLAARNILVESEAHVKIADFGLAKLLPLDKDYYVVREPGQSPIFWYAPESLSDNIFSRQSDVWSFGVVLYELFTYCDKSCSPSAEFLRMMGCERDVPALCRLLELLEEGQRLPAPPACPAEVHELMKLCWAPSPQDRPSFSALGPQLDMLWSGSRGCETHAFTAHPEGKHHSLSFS

Chain of TYK2 (P29597 whole entry): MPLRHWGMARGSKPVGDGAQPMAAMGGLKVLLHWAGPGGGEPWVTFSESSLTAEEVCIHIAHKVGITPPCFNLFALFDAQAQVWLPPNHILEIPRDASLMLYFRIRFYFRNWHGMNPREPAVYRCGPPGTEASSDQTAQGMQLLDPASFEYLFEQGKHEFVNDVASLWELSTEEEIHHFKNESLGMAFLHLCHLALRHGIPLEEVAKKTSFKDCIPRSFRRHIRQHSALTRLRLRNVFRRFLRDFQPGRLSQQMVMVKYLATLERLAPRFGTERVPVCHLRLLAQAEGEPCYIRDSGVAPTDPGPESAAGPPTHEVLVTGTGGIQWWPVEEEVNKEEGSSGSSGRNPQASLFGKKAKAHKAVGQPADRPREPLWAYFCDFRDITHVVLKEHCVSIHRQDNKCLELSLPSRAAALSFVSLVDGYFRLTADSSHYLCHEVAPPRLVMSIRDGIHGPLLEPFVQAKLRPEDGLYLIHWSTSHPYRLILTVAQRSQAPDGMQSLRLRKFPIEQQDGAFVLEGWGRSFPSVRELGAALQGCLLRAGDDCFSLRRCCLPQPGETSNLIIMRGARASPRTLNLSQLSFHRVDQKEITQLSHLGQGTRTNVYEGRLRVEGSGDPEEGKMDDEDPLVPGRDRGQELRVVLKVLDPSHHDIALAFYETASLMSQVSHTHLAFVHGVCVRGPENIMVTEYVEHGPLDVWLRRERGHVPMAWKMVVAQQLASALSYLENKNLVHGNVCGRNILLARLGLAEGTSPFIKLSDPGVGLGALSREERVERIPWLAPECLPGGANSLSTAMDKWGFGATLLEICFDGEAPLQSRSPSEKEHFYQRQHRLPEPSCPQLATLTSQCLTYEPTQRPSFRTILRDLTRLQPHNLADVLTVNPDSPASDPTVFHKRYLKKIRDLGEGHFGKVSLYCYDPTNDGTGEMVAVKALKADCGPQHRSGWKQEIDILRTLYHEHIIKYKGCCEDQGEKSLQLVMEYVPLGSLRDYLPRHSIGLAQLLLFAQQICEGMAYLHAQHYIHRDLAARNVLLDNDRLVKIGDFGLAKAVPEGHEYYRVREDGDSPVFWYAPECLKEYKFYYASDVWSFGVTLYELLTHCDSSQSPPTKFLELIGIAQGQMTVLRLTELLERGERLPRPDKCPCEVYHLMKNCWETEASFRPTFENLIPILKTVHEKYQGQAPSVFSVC

Row | IC50 [1] | IC50 [2] | IC50 [3] | IC50 [4] | Compound
1 | 1000 to 10000 nM | 101 to 1000 nM | 1000 to 10000 nM | 101 to 1000 nM | N#Cc1cnc2nc1-c1ccc(cc1)C(=O)NCCCCOCc1cc(ccc1N1CCOCC1)N2 [Example 11, 2^5-cyano-4^4-morpholin-6-oxa-3,11-diaza-2(4,2)-pyrimidina-1(1,4),4(1,3)-dibenzenacyclododecaphan-12-one]
2 | > 10000 nM | > 10000 nM | > 10000 nM | > 10000 nM | O=C1NCCCOCc2cc(ccc2N2CCOCC2)Nc2nccc(n2)-c2ccc1cc2 [Example 13, 4^4-morpholin-6-oxa-3,11-diaza-2(4,2)-pyrimidina-1(1,4),4(1,3)-dibenzena-cycloundecaphan-11-one]
3 | > 10000 nM | 1000 to 10000 nM | 1000 to 10000 nM | 101 to 1000 nM | O=C1NCCCCOCc2cc(ccc2OCC2Cc3ccccc3O2)Nc2nccc(n2)-c2ccc1cc2[N+](=O)[O-] (centres unmarked) [Example 154, 4^4-((2,3-dihydroxybenzofuran-2-yl)methoxy)-1^2-nitro-6-oxa-3,11-diaza-2(4,2)-pyrimidina-1(1,4),4(1,3)-dibenzenacyclododecaphan-12-one]
4 | 1000 to 10000 nM | 1000 to 10000 nM | 1000 to 10000 nM | 101 to 1000 nM | O=C1NCCCCOCc2cc(ccc2N2CCOCC2)Nc2nccc(n2)-c2ccc1cc2[N+](=O)[O-] [Example 24, 1^2-nitro-4^4-morpholin-6-oxa-3,11-di-aza-2(4,2)-pyrimidina-1(1,4),4(1,3)-dibenzenacyclododecaphan-12-one]
5 | > 10000 nM | > 10000 nM | > 10000 nM | 1000 to 10000 nM | CC1(C)CCNC(=O)c2ccc(c(N)c2)-c2ccnc(n2)Nc2ccc(OC3CC3)c(c2)COC1 [Example 176, 1^2-amino-4^4-cyclopropoxy-8,8-di-methyl-6-oxa-3,11-diaza-2(4,2)-py-rimidina-1(1,4),4(1,3)-dibenzena-cyclododecaphan-12-one]
6 | 101 to 1000 nM | 101 to 1000 nM | 1000 to 10000 nM | 11 to 100 nM | Nc1cc2ccc1-c1ccnc(n1)Nc1ccc(N3CCOCC3)c(c1)COCCCCCCNC2=O [Example 57, 1^2-amino-4^4-morpholin-6-oxa-3,13-diaza-2(4,2)-pyrimidina-1(1,4),4(1,3)-dibenzenacyclotetradecaphan-14-one]
7 | 1000 to 10000 nM | 101 to 1000 nM | 101 to 1000 nM | 11 to 100 nM | Nc1cc2ccc1-c1ccnc(n1)Nc1ccc(OC3CC(F)(F)C3)c(c1)COCCCCNC2=O [Example 98, 1^2-amino-4^4-(3,3-difluorocyclobuto-xy)-6-oxa-3,11-diaza-2(4,2)-pyri-midina-1(1,4),4(1,3)-dibenzenacyclo-dodecaphan-12-one]
8 | 1000 to 10000 nM | 101 to 1000 nM | 1000 to 10000 nM | 11 to 100 nM | Cc1cc2ccc1-c1ccnc(n1)Nc1cc(cc(N3CCOCC3)c1)COCCCCNC2=O [Example 46, 1^2-methyl-4^4-morpholin-6-oxa-3,11-diaza-2(4,2)-pyrimidina-1(1,4),4(1,3)-dibenzenacyclododecaphan-12-one]

The next lines start with the compound.

Row | Compound | IC50 [1] | IC50 [2] | IC50 [3] | IC50 [4]
9 | COc1ccc2cc1COCCCCNC(=O)c1ccc(c(C)c1)-c1nc(ncc1C)N2 [Example 33, 1^2,2^5-dimethyl-4^4-methoxy-6-oxa-3,11-diaza-2(4,2)-pyrimidina-1(1,4),4(1,3)-dibenzenacyclododecaphan-12-one] | > 10000 nM | 1000 to 10000 nM | 1000 to 10000 nM | 1000 to 10000 nM
10 | Nc1cc2ccc1-c1ccnc(n1)Nc1ccc(Oc3cccnc3)c(c1)COCCCCNC2=O [Example 110, 1^2-amino-4^4-(pyridin-3-oxy)-6-oxa-3,11-diaza-2(4,2)-pyrimidina-1(1,4),4(1,3)-dibenzenacyclodo-decaphan-12-one] | 1000 to 10000 nM | 101 to 1000 nM | 1000 to 10000 nM | < 10 nM
11 | 4^4-((1,3-dihydroisobenzofuran-4- yl)methoxy)-1^2-nitro-6-oxa-3,11-di- aza-2(4,2)-pyrimidina-1(1,4),4(1,3)- dibenzenacyclododecaphan-12- one [Example 159] | > 10000 nM | > 10000 nM | > 10000 nM | 1000 to 10000 nM
12 | Nc1cc2ccc1-c1ccnc(n1)Nc1ccc(N3CCSCC3)c(c1)COCCCCNC2=O [Example 66, 1^2-amino-4-thiomorpholin-6-oxa-3,11-diaza-2(4,2)-pyrimidina-1(1,4),4(1,3)-dibenzenacyclo-dodecaphan-12-one] | 101 to 1000 nM | 11 to 100 nM | 101 to 1000 nM | 11 to 100 nM
13 | CC1CCOCc2cc(ccc2OC2CC2)Nc2nccc(n2)-c2ccc(cc2N)C(=O)NC1 (centres unmarked) [Example 157, 1^2-amino-4^4-cyclopropoxy-9-meth-yl-6-oxa-3,11-diaza-2(4,2)-pyrimi-dina-1(1,4),4(1,3)-dibenzenacyclo-dodecaphan-12-one] | 101 to 1000 nM | 11 to 100 nM | 101 to 1000 nM | < 10 nM
14 | Nc1cc2ccc1-c1ccnc(n1)Nc1ccc(Oc3ccncc3)c(c1)COCCCCNC2=O [Example 143, 1^2-amino-4^4-(pyridin-4-oxy)-6-oxa-3,11-diaza-2(4,2)-pyrimidina-1(1,4),4(1,3)-dibenzenacyclododeca-phan-12-one] | > 10000 nM | > 10000 nM | > 10000 nM | 101 to 1000 nM
15 | C[C@@H]1CCOCc2cc(ccc2OC2CCCC2)Nc2nccc(n2)-c2ccc(cc2N)C(=O)NC1 [Example 185, (R)-1-amino-4^4-(cyclopentoxy)-9-methyl-6-oxa-3,11-diaza-2(4,2)-py-rimidina-1(1,4),4(1,3)-dibenzena-cyclododecaphan-12-one] | 1000 to 10000 nM | 101 to 1000 nM | 1000 to 10000 nM | 11 to 100 nM
16 | Cc1cc2ccc1-c1nc(ncc1C)Nc1cccc(c1)COCCCCNC2=O [Example 36, 1^2,2^5-dimethyl-6-oxa-3,11-diaza-2(4,2)-pyrimidina-1(1,4),4(1,3)-diben-zenacyclododecaphan-12-one] | > 10000 nM | > 10000 nM | > 10000 nM | 1000 to 10000 nM
17 | CC1CCNC(=O)c2ccc(c(N)c2)-c2ccnc(n2)Nc2ccc(OC3CC3)c(c2)COC1 (centres unmarked) [Example 95, 1^2-amino-4^4-cyclopropoxy-8-methyl-6-oxa-3, 11-diaza-2 (4,2)-pyrimidina-1(1,4),4(1,3)-dibenzenacyclododecaphan-12-one] | 1000 to 10000 nM | 11 to 100 nM | 1000 to 10000 nM | < 10 nM
18 | O=C1NCCCCOCc2cc(ccc2N2CCOCC2)Nc2nccc(n2)-c2ccc1cc2I [Example 41, 1^2-iodine-4^4-morpholin-6-oxa-3,11-diaza-2(4,2)-pyrimidina-1(1,4),4(1,3)-dibenzenacyclododephan-12-one] | 1000 to 10000 nM | 101 to 1000 nM | 1000 to 10000 nM | 101 to 1000 nM
19 | CC1CCNC(=O)c2ccc(c(N)c2)-c2ccnc(n2)Nc2ccc(OCC3COC3)c(c2)COC1 (centres unmarked) [Example 175] | 1000 to 10000 nM | 101 to 1000 nM | 1000 to 10000 nM | 11 to 100 nM
20 | CC(C)COc1ccc2cc1COCCCCNC(=O)c1ccc(c([N+](=O)[O-])c1)-c1ccnc(n1)N2 [Example 115, 4^4-isobutoxy-1^2-nitro-6-oxa-3,11-diaza-2(4,2)-pyrimidina-1(1,4),4(1,3)-dibenzenacyclododecaphan-12-one] | > 10000 nM | 1000 to 10000 nM | 1000 to 10000 nM | 101 to 1000 nM
